{"source": "ChEMBL document CHEMBL2074431", "about": "“The novel anticancer drug KRN5500 interacts with, but is hardly transported by, human P-glycoprotein” (Jpn J Cancer Res, 2000)", "target": "ATP-dependent translocase ABCB1 (Homo sapiens, UniProt P08183)", "sequence (P08183 whole entry)": "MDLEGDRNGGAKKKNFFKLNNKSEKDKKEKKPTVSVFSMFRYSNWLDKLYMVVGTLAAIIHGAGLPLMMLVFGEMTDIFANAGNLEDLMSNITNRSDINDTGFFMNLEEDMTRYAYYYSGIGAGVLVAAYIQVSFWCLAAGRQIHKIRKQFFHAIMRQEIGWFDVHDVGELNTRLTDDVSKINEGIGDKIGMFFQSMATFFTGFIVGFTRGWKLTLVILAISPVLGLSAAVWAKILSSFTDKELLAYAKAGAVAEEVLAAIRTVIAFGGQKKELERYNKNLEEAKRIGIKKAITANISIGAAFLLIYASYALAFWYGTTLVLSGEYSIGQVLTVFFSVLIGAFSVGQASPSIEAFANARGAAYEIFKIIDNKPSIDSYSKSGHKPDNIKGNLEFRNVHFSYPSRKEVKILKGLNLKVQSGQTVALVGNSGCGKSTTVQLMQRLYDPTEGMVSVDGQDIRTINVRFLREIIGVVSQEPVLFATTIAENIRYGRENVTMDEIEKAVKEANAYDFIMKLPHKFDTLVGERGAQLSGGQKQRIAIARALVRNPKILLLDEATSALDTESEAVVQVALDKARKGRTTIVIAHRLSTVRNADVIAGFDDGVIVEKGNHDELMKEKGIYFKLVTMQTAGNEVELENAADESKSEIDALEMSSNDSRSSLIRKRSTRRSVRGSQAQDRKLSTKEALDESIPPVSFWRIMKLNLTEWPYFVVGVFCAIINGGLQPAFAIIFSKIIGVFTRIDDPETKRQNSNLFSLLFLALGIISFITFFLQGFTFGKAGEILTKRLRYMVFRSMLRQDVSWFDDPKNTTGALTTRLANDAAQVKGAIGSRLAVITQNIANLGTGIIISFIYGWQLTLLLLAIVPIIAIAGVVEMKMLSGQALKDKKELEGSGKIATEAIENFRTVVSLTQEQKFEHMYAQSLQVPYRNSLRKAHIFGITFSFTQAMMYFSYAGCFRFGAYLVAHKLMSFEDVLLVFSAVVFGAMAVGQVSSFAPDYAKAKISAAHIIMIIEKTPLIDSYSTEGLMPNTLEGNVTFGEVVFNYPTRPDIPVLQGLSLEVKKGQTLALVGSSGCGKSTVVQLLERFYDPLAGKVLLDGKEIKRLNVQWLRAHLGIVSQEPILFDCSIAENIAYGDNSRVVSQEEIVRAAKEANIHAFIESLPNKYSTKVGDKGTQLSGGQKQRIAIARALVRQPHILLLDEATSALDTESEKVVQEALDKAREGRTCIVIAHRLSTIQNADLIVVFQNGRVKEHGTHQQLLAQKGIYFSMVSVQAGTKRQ", "experiment": "TP_TRANSPORTER: inhibition of Azidopine photoaffinity labelling (Azidopine: 0.4 uM, KRN5500: 400 uM) in membrane fraction from MDR1-expressing LLC-PK1 cell", "assay_type": "functional, cell membranes", "details": "pig, llc-pk1, 400 µM"}
{"compound": "CCCCCCCCC/C=C/C=C/C(=O)NCC(=O)N[C@@H]1[C@@H](O)[C@@H](O)[C@@H](Nc2ncnc3[nH]cnc23)O[C@H]1[C@@H](O)CO", "values": [{"measurement": "Activity", "result": "inhibitor [+]"}]}
